Reference: US4177287A, “Pharmaceutical compositions of N1 -acyl-N2 -phenyldiaminopropanols and process for their preparation” (Kali-Chemie Pharma GmbH, priority 1977, dated 1979)
Counter-ions that a name gives are not always drawn.

Columns and labels:
[1] = tested on: indomethacine-induced ulcers; assay: Effectiveness against indomethacine-induced ulcers in the rat; type: in vivo; settings: for inhibition at 68 mg/kg: dosage 68 mg/kg p.o.
Experimental: To at least 6 male rats, having a body-weight of from 170 to 220 g, dosages of the test compounds are administered orally in an amount of 0.5 ml of a suspension medium per 100 g animal body-weight. The animals of the blank control group received the corresponding amount by volume of the suspension medium only. One hour after application of the test compounds, a dosage of 20 mg per kg of indomethacine contained in an amount of 0.5 ml of a suspension per 100 g animal body-weight, are orally applied to each animal for producing ulcers. 24 hours after the application of indomethacine, the animals are sacrificed.
The mean value and the standard deviation of the numbers of ulcers is calculated and subsequently the inhibiting activity of the test compounds and a standard compound are calculated as percent inhibition compared with the blank control group.

in vivo = settings: mouse, po, single application, 7-day, unfed white NMRI-mice, read-out: Toxicity LD50 p.o.
Experimental: The acute 7-day-toxicity is determined after a single application per os in white NMRI-mice which had not been fed. The calculation of the LD50 is carried out by probitanalysis by means of electronic data processing (see L. Cavalli-Sforza, Gustav Fischer-Verlag, Stuttgart (1964), Grundbegriffe der Biometrie, pp. 153).

secretion in the stomach = assay: Effect on the secretion in the stomach of narcotized rats (determination of the pH-value); type: in vivo, rat; settings: for inhibition at 300 mg/kg: dosage 300 mg/kg p.o., narcotized rat, acetylcholine 10 mg/kg i.p. control = 100
Experimental: 3. Effect on the secretion in the stomach of narcotized rats (determinationof the pH-value)
The test is performed on narcotized (urethane narcosis) male rats, having a body weight of from 200-230 g. For this purpose N/4000-sodium hydroxide solution is perfused into the stomachs of rats at a rate of 1 ml per minute by means of a cardia- and pylorus-catheter. The pH value of the perfusate, which leaves the stomach by way of the pylorus catheter, is determined by means of a one-rod measuring system, and is continuously registered.
In order to perform a comparative control test, after a pre-run period of 20 minutes, 10 mg per kg of acetylcholine are applied intraperitoneously. The resulting comparative control value is defined as being 100.
For evaluation, the surface-integral is calculated numerically with the aid of the rule of Simpson. The degree of inhibition of the secretion is calculated from the difference between the surfaces before and after the application of the test compound.

ulcer = settings: background; cited from earlier work
[2] = po, rat, indomethacine 20 mg/kg p.o., 24 hours

Row | SMILES | inhibition at 68 mg/kg [1, 2] [%] | LD50 at 168 h (in vivo) [mg/kg] | inhibition at 300 mg/kg (secretion in the stomach) [%] | effect on the ulcer (in words) ([1]; at the low dosage that inhibits secretion (footnote to Table 1)) | inhibition at 12 mg/kg ([1]; po, dosage 12 mg/kg p.o., rat, indomethacine 20 mg/kg p.o., 24 hours) [%] | inhibition at 0.5 mg/kg (secretion in the stomach; Rattus norvegicus, ip, read-out: Inhibition of secretion in the stomach, % inhibition) [%] | inhibition of the secretion in the stomach (in words) (secretion in the stomach; at a low dosage already (footnote to Table 1)) | side effects in ulcer therapy (in words) (ulcer) | success in ulcer therapy (in words) (ulcer) | inhibition at 75 mg/kg ([1]; po, dosage 75 mg/kg p.o., rat, indomethacine 20 mg/kg p.o., 24 hours) [%]
1 | CN(CC(O)CNC(=O)c1ccco1)c1ccc(Cl)cc1 (stereo not drawn) [Compound 4, N1-(2-furoyl)-N2-methyl-N2-(4-chlorophenyl)-1,3-diaminopropan-2-ol] | 44 | > 1470 | 0 | – | – | – | – | – | – | –
2 | CN1[C@@H]2CC[C@H]1C[C@@H](OC(=O)C(CO)c1ccccc1)C2 (stereo partly drawn) [A, atropine sulfate, reference compound] | – | – | – | does not have a sufficiently | 26 | 100 | strong inhibition | side effects which occur already at low dosages | have not succeeded in ulcer therapy | –
3 | COc1ccc(C(=O)NCC(O)CN(C)c2ccc(Cl)cc2)cc1OC (stereo not drawn) [Compound 1, N1-(3,4-dimethoxybenzoyl)-N2-methyl-N2-(4-chlorophenyl)-1,3-diaminopropan-2-ol] | 44 | > 6810 | 0 | – | – | – | – | – | – | –
4 | CN(CC(O)CNC(=O)c1ccccc1F)c1ccc(Cl)cc1 (stereo not drawn) [Compound 2, N1-(2-fluorobenzoyl)-N2-methyl-N2-(4-chlorophenyl)-1,3-diaminopropan-2-ol] | 49 | > 1470 | 0 | – | – | – | – | – | – | –
5 | CN(CC(O)CNC(=O)c1ccccc1C(F)(F)F)c1ccc(Cl)cc1 (stereo not drawn) [Compound 3, N1-(2-trifluoromethylbenzoyl)-N2-methyl-N2-(4-chlorophenyl)-1,3-diaminopropan-2-ol] | – | > 1470 | 0 | – | – | – | – | – | – | 40
